Earlier results on one substance are cited in patent US20190350197A1, “Composition comprising polyurethane microcapsules comprising cinmethylin” (BASF Agro B.V., priority 2016, published 2019).

For this data set the following is noted: at 20° C.

With “(±)-2-exo-(2-methylbenzyloxy)-1-methyl-4-isopropyl-7-oxabicyclo[2.2.1]heptane [Cinmethylin]”, the solubility in water is given as 0.063 g-L^−1.
